Source: PubChem BioAssay AID330 (DTP/NCI, 2004)
Values joined by “and” are separate entries in the source; they are usually repeats but may differ in a detail not shown here. Identical values can stand only once. Inconclusive results and toxic doses are left out. The calls were made as follows: active = survival T/C of 150% or more; inactive = T/C below 125% in these data.

Tested on: P388 leukemia ip, CD2F1 mice, survival T/C
Experiment: NCI In Vivo Anticancer Drug Screen. Data for tumor model P388 Leukemia (intraperitoneal) in CD2F1 (CDF1) mice
Conditions: endpoint: median survival time, higher = longer survival
Outline: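 Mice carrying the transplanted tumor received test compound or vehicle. Survival was recorded in each group, and the value is the treated-group measurement divided by that of the vehicle-treated control group.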

[1] = dose: 100.0 mg/kg/injection, schedule: Q04DX003 (ip), vehicle: Klucel (hydroxypropylcellulose) (HPC)
[2] = dose: 6.25 mg/kg/injection, schedule: Q01DX009 (ip), vehicle: Klucel (hydroxypropylcellulose) (HPC)
[3] = dose: 12.5 mg/kg/injection, schedule: Q01DX009 (ip), vehicle: Klucel (hydroxypropylcellulose) (HPC)

Measured: T/C

CCCCC(CC)C(=O)OCCCNC(=O)C(C)OC(=O)C(CC)CCCC (stereo unspecified)
inactive: dose: 50.0 mg/kg/injection, schedule: Q01DX005 (ip), vehicle: saline with Tween-80 104 % of control | dose: 100.0 mg/kg/injection, schedule: Q01DX005 (ip), vehicle: saline with Tween-80 87 % of control | dose: 200.0 mg/kg/injection, schedule: Q01DX005 (ip), vehicle: saline with Tween-80 104 % of control

CC(O)CN=Cc1ccccc1[O-].CC(O)CN=Cc1ccccc1[O-].[Cu+2] (stereo unspecified)
inactive: dose: 15.0 mg/kg/injection, schedule: Q01DX005 (ip), vehicle: saline with Tween-80 95 % of control | dose: 30.0 mg/kg/injection, schedule: Q01DX005 (ip), vehicle: saline with Tween-80 94 % of control | dose: 60.0 mg/kg/injection, schedule: Q01DX005 (ip), vehicle: saline with Tween-80 101 % of control and 89 % of control

CN(C)c1ccc(C=C2C(=O)N(c3ccccc3)C(=S)N(c3ccccc3)C2=O)cc1
inactive: dose: 60.0 mg/kg/injection, schedule: Q01DX005 (ip), vehicle: Klucel (hydroxypropylcellulose) (HPC) 90 % of control | dose: 120.0 mg/kg/injection, schedule: Q01DX005 (ip), vehicle: Klucel (hydroxypropylcellulose) (HPC) 92 % of control | dose: 240.0 mg/kg/injection, schedule: Q01DX005 (ip), vehicle: Klucel (hydroxypropylcellulose) (HPC) 92 % of control

CSc1nc(C)cc(N)n1
inactive: dose: 12.5 mg/kg/injection, schedule: Q04DX003 (ip), vehicle: Klucel (hydroxypropylcellulose) (HPC) 115 % of control | dose: 25.0 mg/kg/injection, schedule: Q04DX003 (ip), vehicle: Klucel (hydroxypropylcellulose) (HPC) 99 % of control | dose: 50.0 mg/kg/injection, schedule: Q04DX003 (ip), vehicle: Klucel (hydroxypropylcellulose) (HPC) 99 % of control | [1] 103 % of control

C=CC[P+](CC)(c1ccccc1)c1ccccc1
inactive: dose: 0.78 mg/kg/injection, schedule: Q01DX009 (ip), vehicle: saline 95 % of control | dose: 1.56 mg/kg/injection, schedule: Q01DX009 (ip), vehicle: saline 88 % of control | dose: 3.13 mg/kg/injection, schedule: Q01DX009 (ip), vehicle: saline 93 % of control

C=C1C(C#N)=C(SC)SC(=S)N1CC
inactive: dose: 50.0 mg/kg/injection, schedule: Q01DX001 (ip), vehicle: saline with Tween-80 95 % of control | dose: 100.0 mg/kg/injection, schedule: Q01DX001 (ip), vehicle: saline with Tween-80 92 % of control | dose: 200.0 mg/kg/injection, schedule: Q01DX001 (ip), vehicle: saline with Tween-80 93 % of control | dose: 400.0 mg/kg/injection, schedule: Q01DX001 (ip), vehicle: saline with Tween-80 95 % of control

N=C(N)Cl
inactive: dose: 15.0 mg/kg/injection, schedule: Q01DX005 (ip), vehicle: saline 100 % of control | dose: 30.0 mg/kg/injection, schedule: Q01DX005 (ip), vehicle: saline 94 % of control | dose: 60.0 mg/kg/injection, schedule: Q01DX005 (ip), vehicle: saline 88 % of control

O=[N+]([O-])c1cnc(Oc2ccccc2[N+](=O)[O-])nc1
inactive: [2] 107 % of control | [3] 98 % of control | dose: 25.0 mg/kg/injection, schedule: Q01DX009 (ip), vehicle: Klucel (hydroxypropylcellulose) (HPC) 98 % of control | dose: 100.0 mg/kg/injection, schedule: Q01DX009 (ip), vehicle: Klucel (hydroxypropylcellulose) (HPC) 86 % of control

C/C=C/C=C1/OC(C)=C(C(=O)OCC)C1=O
inactive: [2] 107 % of control | [3] 111 % of control | dose: 50.0 mg/kg/injection, schedule: Q01DX009 (ip), vehicle: Klucel (hydroxypropylcellulose) (HPC) 123 % of control

C1CCCC2(CCC1)OCCO2
inactive: [1] 106 % of control | dose: 200.0 mg/kg/injection, schedule: Q04DX003 (ip), vehicle: Klucel (hydroxypropylcellulose) (HPC) 102 % of control | dose: 400.0 mg/kg/injection, schedule: Q04DX003 (ip), vehicle: Klucel (hydroxypropylcellulose) (HPC) 95 % of control

N/C(=N\N=C/c1ccccc1)NN(Cc1ccccc1)N=O
inactive: dose: 25.0 mg/kg/injection, schedule: Q01DX005 (ip), vehicle: Klucel (hydroxypropylcellulose) (HPC) 100 % of control | dose: 50.0 mg/kg/injection, schedule: Q01DX005 (ip), vehicle: Klucel (hydroxypropylcellulose) (HPC) 92 % of control | dose: 100.0 mg/kg/injection, schedule: Q01DX005 (ip), vehicle: Klucel (hydroxypropylcellulose) (HPC) 94 % of control
